Among the data in PubChem BioAssay (NCI) are GI50 and TGI values, retold here.

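Five compound concentrations were applied to cells in 96-well plates for 48 hours; endpoints were derived by simple linear interpolation of the resulting dose-response curve. GI50 marks 50% less growth. The concentration for full growth arrest is given as TGI.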

Test systems include CAKI-1 renal; EKVX NSCLC; K-562 leukemia; SK-OV-3 ovarian; HS 578T breast; SR leukemia; COLO 205 colon; HCT-15 colon; HOP-18 NSCLC; M19-MEL melanoma.
What all share (assay): NCI anticancer screen, dose series, 48 h

With `COC(=O)COc1ccccc1/C=C1\N=C(c2ccccc2)N(c2cc(C(F)(F)F)ccc2Cl)C1=O`, the GI50 in the assay on CAKI-1 renal is 79 µM; with EKVX NSCLC, > 100 µM; in the assay on K-562 leukemia, 33.8 µM; in the assay with SK-OV-3 ovarian it was 57.7 µM; in the assay with HS 578T breast, 35.6 µM; in the assay on SR leukemia, 24 µM. The GI50 is 31.7 µM in the assay with COLO 205 colon and > 100 µM in the assay on HCT-15 colon. For the same molecule, the TGI with CAKI-1 renal was > 100 µM; in the assay on EKVX NSCLC it was > 100 µM; in the assay with K-562 leukemia, > 100 µM; in the assay on SK-OV-3 ovarian, > 100 µM; in the assay with HS 578T breast, > 100 µM; in the assay with SR leukemia, 70.5 µM. Moreover, the TGI with COLO 205 colon and in the assay on HCT-15 colon was > 100 µM throughout.
Turning to `CCN(CC)CCC(CNc1ccnc2cc(Cl)ccc12)c1ccc(Cl)cc1` (stereo unspecified), the GI50 in the assay with CAKI-1 renal was 0.496 µM; in the assay on EKVX NSCLC, 3.85 µM; in the assay on K-562 leukemia, 0.312 µM; in the assay with SK-OV-3 ovarian, 2.1 µM; in the assay on HS 578T breast, 1.66 µM; in the assay with SR leukemia, 0.311 µM. Besides, the GI50 with COLO 205 colon is 1.13 µM; in the assay with HCT-15 colon it was 1.05 µM. Also, the TGI was 2.36 µM in the assay on CAKI-1 renal; 18.8 µM in the assay on EKVX NSCLC; 1.16 µM with K-562 leukemia; 5.4 µM in the assay with SK-OV-3 ovarian; 4.67 µM in the assay on HS 578T breast; 1.48 µM in the assay on SR leukemia. The values for the TGI in the assay on COLO 205 colon and in the assay with HCT-15 colon were 2.5 µM and 4.89 µM, respectively.
With `COc1cccc(CC(C)=C(c2ccc(OCCN(C)C)cc2)c2ccc(OCCN(C)C)cc2)c1`, the GI50 was 3.96 µM with CAKI-1 renal; 4.09 µM in the assay with EKVX NSCLC; 0.614 µM with K-562 leukemia; 5.66 µM in the assay on SK-OV-3 ovarian; 3.58 µM with HS 578T breast; 0.787 µM in the assay with SR leukemia. Also, the GI50 in the assay with COLO 205 colon was 0.626 µM; in the assay with HCT-15 colon, 0.974 µM. Besides, the TGI in the assay on CAKI-1 renal was 8.27 µM; with EKVX NSCLC it was 8.52 µM; in the assay on K-562 leukemia it was 1.77 µM; in the assay on SK-OV-3 ovarian, 10.4 µM; with HS 578T breast, 8.9 µM; in the assay with SR leukemia, 2.22 µM. Further, the TGI in the assay with COLO 205 colon amounted to 1.31 µM; in the assay on HCT-15 colon it was 3.6 µM.
As for `CCC(=O)CC(=O)CCC(=O)Nc1cc(C)ccc1C`, the TGI with EKVX NSCLC, in the assay on K-562 leukemia, with SK-OV-3 ovarian, in the assay on SR leukemia, in the assay on HCT-15 colon and in the assay with HOP-18 NSCLC was > 100 µM each time.
As to `O=C1CCC(Cl)=CC2CCCN12` (stereo unspecified), the TGI with CAKI-1 renal, in the assay with EKVX NSCLC, in the assay on K-562 leukemia, in the assay with SK-OV-3 ovarian, in the assay on M19-MEL melanoma and with COLO 205 colon was > 100 µM in each case. For the same molecule, in the assay with HCT-15 colon, the TGI was > 100 µM.
For the molecule `O=C(Nc1ccc(Nc2ccncc2)cc1)c1ccc([N+](=O)[O-])cc1`, the GI50 in the assay on CAKI-1 renal was 6.02 µM; in the assay with EKVX NSCLC, 11.2 µM; with K-562 leukemia, 3.11 µM; in the assay with SK-OV-3 ovarian, 5.85 µM; with HS 578T breast, 5.8 µM; with SR leukemia, 2.32 µM. Further, the GI50 in the assay with COLO 205 colon is 1.9 µM; in the assay with HCT-15 colon, 4.95 µM. Besides, the TGI in the assay on CAKI-1 renal is 19.3 µM; with EKVX NSCLC, > 61.2 µM; with K-562 leukemia, > 28.2 µM; with SK-OV-3 ovarian it was 19.8 µM; in the assay on HS 578T breast it was 25.9 µM; with SR leukemia, > 20.4 µM. Moreover, the TGI in the assay on COLO 205 colon was 3.73 µM; in the assay on HCT-15 colon, > 40.6 µM.
Turning to `O=C(/C=C/c1ccccc1)CCC1C(=O)c2ccccc2C1=O`, the TGI in the assay on CAKI-1 renal, in the assay with EKVX NSCLC, with K-562 leukemia, in the assay with SK-OV-3 ovarian, in the assay on HS 578T breast and with SR leukemia was > 100 µM in each case. In addition, the TGI in the assay on COLO 205 colon and with HCT-15 colon was > 100 µM throughout.
Consider `CC(C)(C)NNC(=O)CCn1[nH]c(=O)c(Cl)c(Cl)c1=O`, for which the TGI in the assay on CAKI-1 renal, with EKVX NSCLC, with K-562 leukemia, in the assay with SK-OV-3 ovarian, in the assay with M19-MEL melanoma and with COLO 205 colon was > 100 µM in each case. In addition, the TGI in the assay with HCT-15 colon and in the assay on HOP-18 NSCLC was > 100 µM each time.
As for `CCOC(=O)C(C#N)C1=CC(=O)C(=O)c2ccc(OC)cc21` (stereo unspecified), the TGI with CAKI-1 renal is 72.2 µM; in the assay on EKVX NSCLC, 51.8 µM; in the assay on K-562 leukemia it was > 100 µM; in the assay on SK-OV-3 ovarian, 56.7 µM; in the assay on HS 578T breast it was 53.4 µM; in the assay with SR leukemia, > 100 µM. In addition, the TGI in the assay on COLO 205 colon turned out to be 32.3 µM; in the assay on HCT-15 colon, 59.8 µM.
`S=C(Nc1ccc(Cl)cc1)Nc1ccc(-c2nc3ccccc3s2)cc1`: the GI50 is 10.8 µM in the assay on CAKI-1 renal; 15.1 µM in the assay with EKVX NSCLC; 7.28 µM in the assay on K-562 leukemia; 24.9 µM in the assay on SK-OV-3 ovarian; 16.4 µM in the assay with HS 578T breast; 4.47 µM with SR leukemia. The GI50 was 18.7 µM in the assay on COLO 205 colon and 23.5 µM in the assay on HCT-15 colon. The TGI came to 28 µM with CAKI-1 renal; 42.9 µM with EKVX NSCLC; 47.2 µM in the assay with K-562 leukemia; 63.1 µM with SK-OV-3 ovarian; 39.2 µM in the assay with HS 578T breast; 27.4 µM with SR leukemia. In addition, the TGI was 53.7 µM in the assay with COLO 205 colon and > 100 µM in the assay on HCT-15 colon.
On to `CN1CCN(C2CCN(C(=O)Nc3cc(Oc4ccc(NC(=O)C5(C(=O)Nc6ccc(F)cc6)CC5)c(F)c4)ccn3)CC2)CC1`, for which the GI50 was 0.932 µM in the assay with CAKI-1 renal; > 1.99 µM with EKVX NSCLC; 0.514 µM in the assay on K-562 leukemia; 1.3 µM with SK-OV-3 ovarian; 0.688 µM in the assay on HS 578T breast; 0.53 µM in the assay with SR leukemia. In addition, the GI50 is 0.977 µM with COLO 205 colon and 2.04 µM with HCT-15 colon. Moreover, the TGI is > 10 µM in the assay with CAKI-1 renal; > 8.76 µM in the assay with EKVX NSCLC; > 2.53 µM in the assay on K-562 leukemia; > 10 µM in the assay with SK-OV-3 ovarian; > 2.52 µM in the assay with HS 578T breast; 1.77 µM in the assay on SR leukemia. Also, the TGI is > 2.19 µM with COLO 205 colon and > 10 µM in the assay with HCT-15 colon.
In the case of `COc1ccc2occ(CCC(=O)O)c2c1`, the TGI with CAKI-1 renal, in the assay on EKVX NSCLC, with K-562 leukemia, in the assay with SK-OV-3 ovarian, in the assay with M19-MEL melanoma and with COLO 205 colon was > 100 µM throughout. The TGI in the assay on HCT-15 colon and in the assay with HOP-18 NSCLC was > 100 µM throughout.
